Reference: patent publication US4143010A, “High retention wood preservative composition” (Canadian Patents and Development Limited, priority 1978, dated 1979)
≈ marks a conversion by molar mass, not a printed value. Read-outs that look alike come from different tables or passages of the source.

What was measured:
[1] = Immobilization of PCP in spruce microsections, vacuum exposure and microscopy; format: physicochemical
Excerpt: From both samples, microsections were cut from the wood tissues, approximately 0.35 -0.37 inch from the surface in the radial direction, i.e. within the area, where the PCP was positively detected by previous staining. Numerous microscopic sections (transverse) were made from both samples (A and B) separately. From each of both groups of microsections, typical sections were again microscopically stained with a Silver-Copper complex (which is the basis of the "Penta-Check") to detect again PCP in the microsections. Other typical unstained microsections were mounted into microscopic slides and without any staining examined microscopically. On the viewed microsections of treated wood typical spots were selected where the cell obviously contained significant deposits of PCP, and photographed, at the same magnification. Photographed microsections from sample A and B were then carefully removed from the slides, gently dried off by a touch of absorbent paper at the corner of the microsections, and transferred into a vacuum desiccator by a micromanipulator. The desiccator was then closed and very slowly evacuated. When the vacuum reached 29.5 inch Hg, the desiccator was sealed and the microsections left for 7 days ([…]). Then the desiccator, still at 27 inch vacuum, was slowly filled with air, opened and the microsections transferred onto glass slides and mounted for microscopic examination. This exposure under the same vacuum conditions (29.5 -27 inch Hg) for 7 days gave accelerated sublimation of PCP. The accelerated vacuum test is considered as an accurate simulation of the effect of ordinary atmosphere for an extended time. The microscopic slides were carefully examined, the same spot of each microsection was found (as photographed before vacuum exposure) and rephotographed (at the same magnification) for comparison.
Two pairs of photomicrographs are shown as FIGS. 1 (a ) and 1 (b ), and as FIGS. 2 (a ) and 2 (b ), being typical of observations of as many as 50 microsections. […]

[2] = Hydrophobicity (contact angle of water drops) of treated red pine; format: physicochemical; conditions: contact angle 180°
Procedure: The same solutions of preservative compositions (I--II--III), as in Example I have been used for impregnation of red pine wood samples in order to determine the effect on hydrophobicity of wood. After the samples of wood have been fully saturated by solutions I--II--III, the solvent was then evaporated at room temperature during the next 24hours, leaving solid deposits of the components in the wood. Measurements of contact angles of the surface of water drops on pertinent wood samples were made to show the relative hydrophobicity. The sooner the water soaks in the surface of wood (contact angle 180°) the lower the hydrophobicity of wood and vice versa.

[3] = Accelerated sublimation test of deposits on glass under vacuum; format: physicochemical; conditions: room temperature
Excerpt: In order to determine the influence of chemical components in the preservative composition on loss of preservative (PCP) under accelerated sublimation conditions, three solutions have been prepared, separately, in carbon tetrachloride as a solvent (in percent w/v).
I. solution: PCP (3.5%) as a preservative.
Ii. solution; PCP (3.5%) and stearic acid (3.5%) as the hydrophobic agent.
III. Solution: PCP (3.5%) stearic acid (3.5%) and polystyrene (0.7%) as the organic polymer.
The same volume of each solution (0.07 ccm/sq.in.) has been poured on the surface of glass template and the solent evaporated at room temperature leaving solid deposits of each sample. Then these deposits of the 3 different preservative compositions (I--II--III), in which the amount of preservative (PCP) was the same, were exposed to vacuum at room temperature in order to accelerate the loss of components. The loss of weight of each single deposit was checked periodically and is expressed in FIG. 1 in percent of original weight of preservative (PCP).

[4] = Test of solubility of oxathiins and additives in various solvents; format: physicochemical
Excerpt: Table 5 is a solubility chart summarizing a list of organic solvents solubilizing oxathiins and the two additives which can be applied in the same solution.

Coniophora puteana = experiment: Effectiveness against decay fungi on spruce sections; format: cell-based, Coniophora puteana (A302); conditions: 19 days at 27° C
Procedure: (§1) The fungicidal activity of these compositions was determined in an accelerated experiment with the wood-rotting basidiomycetes Lenzites trabea (S644), Coniophora puteana (A302) and Poria monticola (A384) as test fungi. Small cross-the-grain sections of spruce wood (Picea glauca, a refractory species) were cut 40 microns thick on a microtome. All treatment specimens (0.5 × 0.5 inch) were cut from the same block of wood and were therefore homogeneous in nature. Wood specimens were treated to different retention levels with the active ingredients D18 or D20 with or without the additives. Two of each treatment series were placed on sterilized glass microscopic cover slips (22 mm^2) which were then deposited upon cultures of actively growing decay fungi in Petri dishes. Cultures were grown on a 2% malt extract, 2% agar medium. Two untreated specimens were included in each culture dish as controls. Treatment series were 0.1, 0.5 and 1.75 pcf. Incubation was for 19 days at 27° C. Each test was done in duplicate. Evaluation of the treated samples was made using a stereoscopic microscope (× 10.5 magnification). The percentage of the surface area of each specimen colonized by the test fungus was determined. The smaller the colonized surface area on each wood specimen, the more efficient the preservative composition used for specimen treatment.

Lenzites trabea [5] = experiment: as above; format: cell-based, Lenzites trabea (S644); conditions: for Average Percentage of Wood Area Colonized: 19 days at 27° C
Procedure: as §1

Poria monticola [6] = experiment: Soil-block culture decay test after leaching; format: cell-based; conditions: leached samples
Excerpt: 5% (w/cv) D18 in chloroform and
5% (w/v) D18 with 1.4% wax and 1% polystyrene in chloroform solution.
After solvent removal by slow air drying and a short period of oven drying both series of samples were exposed to leaching in water under the same conditions (time of exposure, temperature and volume of water for leaching). […] After leaching the samples were further tested for toxicity against a wood-decaying fungus in a modified standard method of testing wood preservatives by laboratory soil-block cultures. Five untreated controls and 5 samples from each preservative series were put into soil jars on wooden feeder blocks inoculated with a standard test fungus Poria monticola. […] Jars were located in an incubation room maintained at 80° F. and 70% R.H. and were opened one by one in five consecutive time intervals, after 25 -- 32 -- 39 -- 46 and 65 days incubation. Wood specimens taken from the jars were oven dried and the weight loss due to decay calculated.

Leaching resistance test = format: physicochemical; conditions: for increase of leaching resistance due to additives: with additives versus without
Procedure: Solution I 5% w/v D-18 in chloroform
Solution II 5% w/v D-20 in chloroform
1.0% w/v polystyrene in chloroform
Solution IV same as III but with 5% w/v D-20.
uptake of preservative was calculated from the weight increase. Chloroform solvent was removed from the samples by air drying followed by drying in the oven at 105° C. for 4 hours. Each sample was leached with a standard volume of distilled water at room temperature. Every two hours the water surrounding each sample was removed for spectrophotometric measurement and was replaced by another standard volume of fresh distilled water. Total leaching time was 140 hours. The concentration of D18 and D20 in the leach water was determined by comparing specific absorbance in UV light with the absorbance of known concentrations of D18 and D20 in water. The leached amount of D18 and D20 was recalculated as a percent of the original amount impregnated into the samples before leaching.

Poria monticola [7] = experiment: Effectiveness against decay fungi on spruce sections; format: cell-based, Poria monticola (A384); conditions: for Average Percentage of Wood Area Colonized: 19 days at 27° C
Procedure: as §1

Lenzites trabea [8] = conditions: wood preservative threshold; cited from earlier work
[9] = water, read-out: Solubility in water
[10] = retention 0.1 pcf, * = mycelia extended over the top but did not colonize all substrate underneath

SMILES	solubility [4, 9] [µg/mL]	Average Percentage of Wood Area Colonized (Coniophora puteana; retention 0.1 pcf) [Percentage]	Average Percentage of Wood Area Colonized (Coniophora puteana; retention 0.5 pcf) [Percentage]	Average Percentage of Wood Area Colonized (Coniophora puteana; retention 1.75 pcf) [Percentage]	Average Percentage of Wood Area Colonized (Lenzites trabea [5]; [10]) [Percentage]	Average Percentage of Wood Area Colonized (Lenzites trabea [5]; retention 0.5 pcf) [Percentage]	Average Percentage of Wood Area Colonized (Lenzites trabea [5]; retention 1.75 pcf) [Percentage]	Cumulative Percent Preservative Leached from Wood (Leaching resistance test; 10 hours of exposure) [%]	Cumulative Percent Preservative Leached from Wood (Leaching resistance test; 30 hours of exposure) [%]	Cumulative Percent Preservative Leached from Wood (Leaching resistance test; 70 hours of exposure) [%]	Cumulative Percent Preservative Leached from Wood (Leaching resistance test; 140 hours of exposure) [%]	increase of leaching resistance due to additives (Leaching resistance test)	Average Percentage of Wood Area Colonized (Poria monticola [7]; [10]) [Percentage]	Average Percentage of Wood Area Colonized (Poria monticola [7]; retention 0.5 pcf) [Percentage]	Average Percentage of Wood Area Colonized (Poria monticola [7]; retention 1.75 pcf) [Percentage]	other results
Oc1c(Cl)c(Cl)c(Cl)c(Cl)c1Cl [PCP, pentachlorophenol]																PCP retention after vacuum exposure ([1]; 164 hours, 29.5-27 inch Hg): had disappeared after vacuum exposure; water repellency of microsections ([1]; microscopic sections): not highly water repellent; distribution of PCP in the cells ([1]; microscopic staining): deposited on the cell walls in individual spots; time for water to soak into wood surface [2]: ≤ 40 s; loss of PCP ([3]; deposit on glass under vacuum, % of original weight of PCP (FIG. 1)): 99%
CC1=C(C(=O)Nc2ccccc2)SCCO1 [Solution D18, 2,3-dihydro-5-carboxanilido-6-methyl-1,4-oxathiin]	170 (≈ 722 µM)	30	5	5	25	0	0	14	27	43	56	51-57%	40	0	0	Cumulative Percent Weight Loss Due to Decay (Poria monticola [6]; 25 days of incubation): 2%; Cumulative Percent Weight Loss Due to Decay (Poria monticola [6]; 32 days of incubation): 4%; Cumulative Percent Weight Loss Due to Decay (Poria monticola [6]; 39 days of incubation): 6%; Cumulative Percent Weight Loss Due to Decay (Poria monticola [6]; 46 days of incubation): 10%; Cumulative Percent Weight Loss Due to Decay (Poria monticola [6]; 65 days of incubation): 21%; known threshold level (Lenzites trabea [8]): 1.1 mg/mL
CC1=C(C(=O)Nc2ccccc2)S(=O)(=O)CCO1 [Solution D20]	1000 (≈ 3740 µM)	40	10	10	50	0	0	10	38	54	61	17-27%	50	15	10	solubility ([4]; Carbon tetrachloride): - (+); solubility ([4]; Perchloroethylene): - (+); effect of additives on effectiveness (Lenzites trabea [5]): increase in the effectiveness of D20 due to the additives; effect of additives on effectiveness (Poria monticola [7]): increase in the effectiveness of D20 due to the additives
CCCCCCCCCCCCCCCCCC(=O)O [stearic acid]																reduction of PCP sublimation compared to the control ([3]; vacuum, control = PCP alone): 34%
